Experiments:
[1] = system: Puccinia recondita f. sp. tritici; assay: Test B: preventive spray on wheat seedlings, wheat leaf rust disease rating; format: in vivo; settings: 192 h, 100 = 100% disease control, 0 = no control
Description: (§1) General protocol for preparing test suspensions for Tests A-F: the test compounds were first dissolved in acetone in an amount equal to 3% of the final volume and then suspended at the desired concentration (in ppm) in acetone and purified water (50/50 mix by volume) containing 250 ppm of the surfactant PEG400 (polyhydric alcohol esters). The resulting test suspensions were then used in Tests A-F.
The test solution was sprayed to the point of run-off on wheat seedlings. The following day the seedlings were inoculated with a spore suspension of Puccinia recondita f. sp. tritici (the causal agent of wheat leaf rust) and incubated in a saturated atmosphere at 20° C. for 24 h, and then moved to a growth chamber at 20° C. for 7 days, after which time disease ratings were made.
(§2) A rating of 100 indicates 100% disease control and a rating of 0 indicates no disease control (relative to the controls). A dash (-) indicates the compound was not tested.

[2] = system: Phakopsora pachyrhizi; assay: Test D: preventive spray on soybean seedlings, Asian soybean rust disease rating; format: in vivo; settings: 216 h, 100 = 100% disease control, 0 = no control
Description: as §1
The test solution was sprayed to the point of run-off on soybean seedlings. The following day the seedlings were inoculated with a spore suspension of Phakopsora pachyrhizi (the causal agent of Asian soybean rust) and incubated in a saturated atmosphere at 22° C. for 24 h and then moved to a growth chamber at 22° C. for 8 days, after which time visual disease ratings were made.
as §2

| SMILES | melting point [°C] | pest or weed control at 10 ppm [1] [%] | pest or weed control at 10 ppm [2] [%] |
| --- | --- | --- | --- |
| COC(=O)NCc1cc(-c2ccn(-c3c(F)cc(OC(C)C)cc3F)n2)ccc1C [Compound 14, methyl N-[[5-[1-[2,6-difluoro-4-(1-methylethoxy)phenyl]-1H-pyrazol-3-yl]-2-methylphenyl]methyl]carbamate] | 133 to 134 |  |  |
| COC(=O)NCc1cc(-c2ncn(-c3c(F)cc(Cl)cc3F)n2)ccc1C [Compound 105] | 166 to 170 | 100 | 92 |
| COC(=O)NCc1cc(-c2ccn(-c3c(F)cc(O)cc3F)n2)ccc1C [Compound 10, methyl N-[[5-[1-(2,6-difluoro-4-hydroxyphenyl)-1H-pyrazol-3-yl]-2-methylphenyl]methyl]carbamate] | 178 to 180 |  |  |
| COC(=O)NCc1cc(-c2ccn(-c3c(F)cc(C=O)cc3F)n2)ccc1C [Compound 67, methyl N-[[5-[1-(2,6-difluoro-4-formylphenyl)-1H-pyrazol-3-yl]-2-methyl-phenyl]methyl]carbamate] | 156 to 160 |  |  |
| COC(=O)NCc1cc(-c2cnn(-c3c(F)cc(N)cc3F)n2)ccc1C [Compound 115, methyl N-[[5-[2-(4-amino-2,6-difluorophenyl)-2H-1,2,3-triazol-4-yl]-2-methylphenyl]methyl]carbamate] | 144 to 148 |  |  |
| COC(=O)NCc1cc(-c2cn(-c3c(F)cc([N+](=O)[O-])cc3F)nn2)ccc1C [Compound 132, methyl N-[[5-[1-(2,6-difluoro-4-nitrophenyl)-1H-1,2,3-triazol-4-yl]-2-methylphenyl]methyl]carbamate] | 174 to 178 |  |  |
| COC(=O)NCc1cc(-c2ccn(-c3c(F)cc(N)cc3F)n2)ccc1C [Compound 5, methyl N-[[5-[1-(4-amino-2,6-difluorophenyl)-1H-pyrazol-3-yl]-2-methyl-phenyl]methyl]carbamate] | 168 to 171 |  |  |
| COC(=O)NCc1cc(-c2ccn(-c3c(F)cc(C(=O)OC)cc3F)n2)ccc1C [Compound 70, methyl 3,5-difluoro-4-[3-[3-[[(methoxycarbonyl)amino]methyl]-4-methyl-phenyl]-1H-pyrazol-1-yl]benzoate] | 120 to 122 |  |  |
| COC(=O)NCc1cc(-c2ccn(-c3c(F)cc(Br)cc3F)n2)ccc1C [Compound 7, methyl N-[[5-[1-(4-bromo-2,6-difluorophenyl)-1H-pyrazol-3-yl]-2-methyl-phenyl]methyl]carbamate] | 138 to 139 |  |  |
| COC(=O)NCc1cc(-c2ccn(-c3c(F)cc([N+](=O)[O-])cc3F)n2)ccc1C [Compound 1, methyl N-[[5-[1-(2,6-difluoro-4-nitrophenyl)-1H-pyrazol-3-yl]-2-methyl-phenyl]methyl]carbamate] | 131 to 134 |  |  |
| COC(=O)NCc1cc(-c2cnn(-c3c(F)cc(Cl)cc3F)n2)ccc1C [Compound 117, methyl N-[[5-[2-(4-chloro-2,6-difluorophenyl)-2H-1,2,3-triazol-4-yl]-2-methylphenyl]methyl]carbamate] | 108 to 112 |  |  |
| COC(=O)NCc1cc(-c2cnn(-c3c(F)cc([N+](=O)[O-])cc3F)n2)ccc1C [Compound 118, methyl N-[[5-[2-(2,6-difluoro-4-nitrophenyl)-2H-1,2,3-triazol-4-yl]-2-methyl-phenyl]methyl]carbamate] | 152 to 156 |  |  |
| COC(=O)NCc1cc(-c2ccn(-c3c(F)cc(CO)cc3F)n2)ccc1C [Compound 71, methyl N-[[5-[1-[2,6-difluoro-4-(hydroxymethyl)phenyl]-1H-pyrazol-3-yl]-2-methylphenyl]methyl]carbamate] | 183 to 184 |  |  |

Source: patent US20240324596A1, “SUBSTITUTED TOLYL FUNGICIDES” (FMC CORPORATION, priority 2023, published 2024)
